Legend:
Assay in all cases: cells
Nomo-1 cells = settings: Homo sapiens, NOMO-1, 72 h, read-out: Relative cell viability compared to control
[1] = tested on: patient-derived primary AML cells HD-23; settings: 72 h, read-out: Relative cell viability compared to control
HL-60 cells = settings: Homo sapiens, HL-60, 72 h, read-out: Relative cell viability compared to control

For `Nc1ncn([C@@H]2O[C@H](CO)[C@@H](O)[C@H]2O)c(=O)n1` [Azacytidine, 4-Amino-1-β-D-ribofuranosyl-1,3,5-(1H)triazin-2-one], the viability at 1.5 µM (Nomo-1 cells) was 67.1%.

In the case of `O=C(Cc1cccc(OC(F)(F)F)c1)Nc1ccc(CCCCc2nnc(NC(=O)Cc3ccccn3)s2)nn1` [CB-839], the viability at 1 µM [1] is reported as 84.6%, the viability at 0.5 µM (Nomo-1 cells) is reported as 96.1% and the viability at 1 µM (Nomo-1 cells) is reported as 98.1%. It also gave a viability at 0.5 µM (HL-60 cells) of 95.1% and a viability at 1 µM (HL-60 cells) of 92.1%.

`C#CCC(N)C(=O)O` (stereo not shown) [PPG, 2-aminopent-4-ynoic acid] was tested, and the viability at 2000 µM [1] was 92.9%, the viability at 250 µM (Nomo-1 cells) was 97.9% and the viability at 500 µM (Nomo-1 cells) was 96.6%. The viability at 1000 µM (Nomo-1 cells) was 95.2%, the viability at 250 µM (HL-60 cells) was 98.7% and the viability at 500 µM (HL-60 cells) was 98.9%. It also gave a viability at 1000 µM (HL-60 cells) of 97.9%.

Work on `CC1(C)CCC(CN2CCN(c3ccc(C(=O)NS(=O)(=O)c4ccc(NCC5CCOCC5)c([N+](=O)[O-])c4)c(Oc4cnc5[nH]ccc5c4)c3)CC2)=C(c2ccc(Cl)cc2)C1` [Venetoclax, 4-[4-[[2-(4-Chlorophenyl)-4,4-dimethyl-1-cyclohexen-1-yl]methyl]-1-piperazinyl]-N-[[3-nitro-4-[[(tetrahydro-2H-pyran-4-yl)methyl]amino]phenyl]sulfonyl]-2-(1H-pyrrolo[2,3-b]pyridin-5-yloxy)benzamide] yielded a viability at 0.015625 µM (Nomo-1 cells) of 93.8%, a viability at 0.03125 µM (Nomo-1 cells) of 90.4% and a viability at 0.0625 µM (Nomo-1 cells) of 85.4%. The viability at 0.125 µM (Nomo-1 cells) was 79.8%, the viability at 0.5 µM (Nomo-1 cells) was 63.6% and the viability at 1 µM (Nomo-1 cells) was 55.3%.

From patent publication US20250161351A1 (priority 2022, published 2025)
